Assay results as given in paper PMC12028738 (Marine Drugs, 2025).
Values belong to the molecule of their own block, whether it stands above or below them. Where no end group is shown, it is not given here.

Key:
PD-1/PD-L1 binding = details: read-out: PD-1/PD-L1 inhibitory IC50; cited from earlier work
Text: (§1) With continuous progress of modern separation and analysis techniques, high-throughput screening methods for enzyme inhibitory peptides have emerged as powerful tools in the discovery of bioactive peptides. Recently, the methodologies based on the phage display library, bacteria display library, and peptide fragment of proteins have been applied in screening for PD-L1 inhibitors.

Water-solubility = format: physicochemical; details: qualitative statement
CT26 tumor = details: 2 mg/kg, CT26 tumor-bearing mice; cited from earlier work
Text: as §1

[1] = molecular target: T1, recombinant human PD-L1 (residue 18–239, extracellular domain) (human, UniProt Q9NZQ7 18-239); test: SPR; Biacore T200, 25 °C; PD-L1 amine-coupled on a CM5 chip to about 5600 RU; peptides injected in PBS-P (1% DMSO) at 30 µL/min, 60 s contact, 60 s dissociation; details: both partners purified
T1 construct: Programmed death ligand 1 (PD-L1, B7-H1, CD274), human, residues 18-239, extracellular domain; The limits 18-239 are told for the SPR experiment; No tag is stated; also called programmed death ligand 1; source: bought: Abcam (recombinant, 25 kDa)

Tag1-PD-L1 protein = Tag1-PD-L1 protein (UniProt Q9NZQ7 19-238); test: AlphaScreen or HTRF; Cisbio PD-1/PD-L1 HTRF binding assay kit; competition: analyte with Tag1-PD-L1 and Tag2-PD-1 for 15 min at room temperature, then anti-Tag1-Eu3+ and anti-Tag2-XL665 for 2 h at room temperature; details: both partners purified

- water-solubility (Water-solubility): poor
Molecule: LDVVIHTVTYGDR [C5]

- Kd [1]: 22.9 µM
- IC50 (Tag1-PD-L1 protein): 33.9 µM
B2: C5 (peptide)
peptide: LDVVIHTVTYGDR
notes: from the Ciona intestinalis trypsin hydrolysate; written as one molecule; The parent protein is not known; also called peptide C5; source: trypsin hydrolysate of Ciona intestinalis (AUF); synthetic peptide, GuoPing Pharmaceutical (HTRF, SPR)

Second part, the molecule before the results:

Molecule: CKWYRPSEC [cyclic peptide C8, not the ascidian peptide C8]
- IC50 (PD-1/PD-L1 binding): < 10 µM

Molecule: NYSKPTDRQYHF [^DPPA-1]
- prolongation of survival time (CT26 tumor): ~50%
- tumor growth (CT26 tumor): inhibited the tumor growth

B1: S2 (peptide)
peptide: VLRDNIQGITKPAIR
notes: from the Styela clava trypsin hydrolysate; candidate protein: Histone H4 (Transparent ascidian); the text says that it exactly matches Histone H4 of Ciona savignyi; written as one molecule; also called peptide S2; source: trypsin hydrolysate of Styela clava (AUF); synthetic peptide, GuoPing Pharmaceutical (HTRF, SPR)
- Kd [1]: 29.1 µM
- IC50 (Tag1-PD-L1 protein): 113 µM
